Patent publication US20250092052A1, “HETEROARYL DERIVATIVE COMPOUNDS, AND USES THEREOF” (VORONOI INC., priority 2023, published 2025)

Key:
human PKMYT1 enzyme = human PKMYT1 enzyme (Homo sapiens (Human), UniProt Q99640); assay: Inhibitory activity against PKMYT1 kinase (ADP-Glo kinase assay); type: biochemical; conditions: purified human PKMYT1, ATP, CDK1 substrate, 25° C., 1 hour
Protocol: To evaluate the inhibitory activity of the compounds synthesized according to the above Examples against PKMYT1 kinase, the Example compounds were reacted with purified human PKMYT1 enzyme and assessed using the following method.
The reaction buffer was used as a composition of 200 mM Tris-HCl pH 7.4, 100 mM MgCl2, 0.5 mg/mL BSA, 0.25 mM DTT, and the reactions of all the tests were carried out on the reaction buffer.
The compound was diluted in 12 steps using a serial dilution method from a 10 mM DMSO stock, and the enzyme activity was measured at a final compound concentration of 10˜0.00005645 μM. During the test, the enzyme activity was confirmed using in vitro ADP-Glo™kinase assay (Promega) after reacting with the proper concentration of PKMYT1 enzyme, purified ATP, and enzyme substrate (CDK1) at 25° C. for 1 hour. At a ratio of 2:2:1, an enzyme-active reaction solution, an ADP-Glo reaction solution, and an enzyme-active detection solution were reacted to measure the inhibition of the enzyme's activity with luminescence. Based on the […] of the enzyme activity of the solvent control that was not treated with the compound, the degree of enzyme activity inhibition was calculated according to the treatment concentration of each compound, and the concentration of each compound that inhibits 50% of enzyme activity was determined as IC50 (nM) value and the value was obtained by using GraphPad Prism 8.3.0 (GraphPad software Inc., San Diego) software.

Myt1-KD = Myt1-KD (Homo sapiens (Human), UniProt Q99640); assay: Thermal Shift Assay, compound binding to Myt1-KD; conditions: 2 μM protein, 100 μM compound, Tm of compound minus Tm of DMSO
Protocol: The degree of compound binding to Myt1-KD was tested using a Thermal Shift Assay. Each protein was diluted to a concentration of 2 μM in 50 mM Tris (pH 7.5) with 100 μM of the compound. SYPRO™ Orange dye was added to the solution, and the plate was transferred to a QuantStudio3 Real-Time PCR System (Applied Biosystems by Thermo Fisher Scientific). […] The degree of protein melting in the presence of the compound compared to DMSO was calculated according to the following Equation 1. ΔTm=Tm (Temperature of Example compound)−Tm (Temperature of DMSO) [Equation 1]

Chain of Myt1-KD (Q99640 110-359): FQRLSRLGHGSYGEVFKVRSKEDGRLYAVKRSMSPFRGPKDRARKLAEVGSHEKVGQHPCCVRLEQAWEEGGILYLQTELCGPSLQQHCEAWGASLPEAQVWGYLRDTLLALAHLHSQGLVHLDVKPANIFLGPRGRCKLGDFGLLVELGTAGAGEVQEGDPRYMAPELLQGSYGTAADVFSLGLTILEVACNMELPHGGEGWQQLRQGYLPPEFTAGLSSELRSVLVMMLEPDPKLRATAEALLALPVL
Chain of human PKMYT1 enzyme (Q99640 whole entry): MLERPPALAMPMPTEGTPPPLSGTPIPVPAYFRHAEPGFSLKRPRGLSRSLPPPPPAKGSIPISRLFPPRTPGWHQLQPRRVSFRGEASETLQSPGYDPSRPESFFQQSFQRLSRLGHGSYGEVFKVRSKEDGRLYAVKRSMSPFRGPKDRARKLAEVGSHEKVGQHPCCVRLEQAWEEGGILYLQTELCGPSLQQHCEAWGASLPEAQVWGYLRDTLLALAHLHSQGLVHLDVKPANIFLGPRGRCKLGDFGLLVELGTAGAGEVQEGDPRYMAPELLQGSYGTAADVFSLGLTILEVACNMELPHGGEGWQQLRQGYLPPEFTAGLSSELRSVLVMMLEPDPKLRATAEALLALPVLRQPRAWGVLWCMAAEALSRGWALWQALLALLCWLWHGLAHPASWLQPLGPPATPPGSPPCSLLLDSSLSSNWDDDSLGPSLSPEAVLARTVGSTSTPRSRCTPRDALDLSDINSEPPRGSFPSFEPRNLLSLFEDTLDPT

ΔTm at 100 µM (Myt1-KD)	Compound	IC50 (human PKMYT1 enzyme)	ΔTm (° C.) (Myt1-KD)
	Cc1ccc(O)c(C)c1-n1c(N)c(C(=O)c2nc3ccccc3[nH]2)c2cccnc21 [Example 3, (S)-(2-amino-1-(3-hydroxy-2,6-dimethylphenyl)-1H-pyrrolo[2,3-b]pyridin-3-yl)(1H-benzo[d]imidazol-2-yl)methanone]	≤ 200 nM	A (ΔTm (° C.) ≥ 5° C.)
	Cc1ccc(O)c(C)c1-n1c(N)c(C(=O)c2cc3ccncc3[nH]2)c2nccnc21 (atropisomer, axis not shown) [Example 25, (R)-(6-amino-5-(3-hydroxy-2,6-dimethylphenyl)-5H-pyrrolo[2,3-b]pyrazin-7-yl)(1H-pyrrolo[2,3-c]pyridin-2-yl)methanone]	≤ 200 nM	A (ΔTm (° C.) ≥ 5° C.)
≥ 5 °C	Cc1ccc(O)c(C)c1-n1c(N)c(C(=O)c2cc3cnc(N4CCOCC4)cc3[nH]2)c2nc(C)c(C)nc21 (atropisomer, axis not shown) [Example 15, (S)-(6-amino-5-(3-hydroxy-2,6-dimethylphenyl)-2,3-dimethyl-5H-pyrrolo[2,3-b]pyrazin-7-yl)(6-morpholino-1H-pyrrolo[3,2-c]pyridin-2-yl)methanone]	≤ 200 nM	
	Cc1ccc(O)c(C)c1-n1c(N)c(C(=O)c2cc3sccc3[nH]2)c2nc(C)c(C)nc21 [Example 13, (S)-(6-amino-5-(3-hydroxy-2,6-dimethylphenyl)-2,3-dimethyl-5H-pyrrolo[2,3-b]pyrazin-7-yl)(4H-thieno[3,2-b]pyrrol-5-yl)methanone]	≤ 200 nM	A (ΔTm (° C.) ≥ 5° C.)
